In patent publication US12528837B2, “Aryl substituted polymyxin derivatives” (priority 2018, dated 2026):
Several values for one entry are separate records, joined by “and”; a condition that tells them apart may be missing. Identical values can stand only once.

What was measured:
[1] = tested on: A. baumannii NCTC13301; assay: Neutropenic murine thigh model; assay type: in vivo; conditions: CD-1 mice thigh, IV 0.5 mg/kg at 2, 6, 10 h, counts at 16 h, PMB in parentheses, listed as PMB
Experimental: After rendering neutropenic (cyclophosphamide 150 mg/kg d-4, 100 mg/kg d-1), CD-1 mice (n=5) were inoculated in each thigh with approx. 10^5 cfu of A. baumannii NCTC13301. […] At 16 h post-infection mice were euthanised and thighs prepared for colony counts.
(§1) In each case the decrease observed with PMB in the same experiment is shown in parentheses: […]

[2] = tested on: A. baumannii NCTC13301; assay: Neutropenic murine lung model; assay type: in vivo
Experimental: After rendering neutropenic (cyclophosphamide 200 mg/kg d-4, 150 mg/kg d-1), CD-1 mice (n=8) were inoculated intranasally with approx. 10^7 cfu per lung of A. baumannii NCTC13301. Mice were dosed SC with PMB sulphate (20 mg/kg) or appropriate doses of test compound (equivalent weight free base) at 2, 6 and 10 h post-infection. At 16 h post-infection mice were euthanised and lungs prepared for colony counts.
as §1

## Polymyxin B [reference compound]
[1]
  Log drop in cfu Compared to Vehicle Control: 4.2 and 4.1
[2]; CD-1 mice lung, SC 20 mg/kg at 2, 6, 10 h, counts at 16 h, PMB (20 mg/kg) in parentheses
  Log drop in cfu Compared to Vehicle Control: 0
[2]; neutropenic murine lung model, A. baumannii NCTC13301, 20 mg/kg SC (PMB: maximum tolerated dose)
  Efficacy in the model (in words): not efficacious
